Measured values published in patent publication US7138361B2, “Herbicidal heterocycles” (E. I. du Pont de Nemours and Company, priority 2000, dated 2006).

Key:
Test in all cases: Test C preemergence
Assay type in all cases: in vivo
[1] = test system: bermudagrass (Cynodon dactylon)
In short: (§1)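 Visual injury scores of 0–100, with 100 meaning complete control, were given relative to controls after 12–14 days in the greenhouse. Treatments used a surfactant-containing non-phytotoxic solvent formulation, sprayed on seeded pots preemergence or on 1–4-leaf plants of 2–18 cm postemergence.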

[2] = test system: woolly cupgrass (Eriochloa villosa)
In short: as §1

[3] = test system: crabgrass (Digitaria sanguinalis)
In short: as §1

[4] = test system: lambsquarters (Chenopodium album)
In short: as §1

kochia (Kochia scoparia) = test system: kochia (Kochia scoparia)
In short: as §1

[5] = test system: yellow nutsedge (Cyperus esculentus)
In short: as §1

[6] = test system: giant foxtail (Setaria faberii)
In short: as §1

[7] = test system: velvetleaf (Abutilon theophrasti)
In short: as §1

[8] = test system: cocklebur (Xanthium strumarium)
In short: as §1

[9] = test system: pigweed (Amaranthus retroflexus)
In short: as §1

Nightshade = test system: Nightshade
Sunflower [10] = settings: Rate 125 g/ha; scale 0 to 100, 0 no effect, 100 complete control
[11] = test system: common ragweed (Ambrosia elatior)
In short: as §1

corn (Zea mays) = test system: corn (Zea mays)
In short: as §1

[12] = test system: Surinam grass (Brachiaria decumbens)
In short: as §1

[13] = test system: goosegrass (Eleusine indica)
In short: as §1

[14] = test system: morningglory (Ipomoea hederacea)
In short: as §1

[15] = test system: johnsongrass (Sorghum halepense)
In short: as §1

soybean (Glycine max) = test system: soybean (Glycine max)
In short: as §1

Sunflower [16] = settings: Rate 250 g/ha, scale 0 to 100, 0 no effect, 100 complete control
[17] = Rate 125 g/ha, scale 0 to 100, 0 no effect, 100 complete control
[18] = preemergence, Rate 31 g/ha, scale 0 to 100
[19] = preemergence, Rate 62 g/ha, scale 0 to 100
[20] = preemergence, Rate 250 g/ha, scale 0 to 100, 0 no effect, 100 complete control

CCCC(C)c1ccn(C2SCN(c3cccc(OC(F)(F)F)c3)C2=O)n1 (centres unmarked) [Compound 90]
Plant response rating, Bermudagrass [1, 17]: 100
Plant response rating, Bermudagrass [1, 18]: 0
Plant response rating, Bermudagrass [1, 19]: 0
Plant response rating, Bermudagrass [1, 20]: 100
Plant response rating, Cupgrass, Woolly [2, 17]: 10
Plant response rating, Cupgrass, Woolly [2, 18]: 0
Plant response rating, Cupgrass, Woolly [2, 19]: 0
Plant response rating, Cupgrass, Woolly [2, 20]: 60
Plant response rating, Crabgrass [3, 17]: 100
Plant response rating, Crabgrass [3, 18]: 80
Plant response rating, Crabgrass [3, 19]: 80
Plant response rating, Crabgrass [3, 20]: 100
Plant response rating, Lambsquarters [4, 17]: 100
Plant response rating, Lambsquarters [4, 18]: 10
Plant response rating, Lambsquarters [4, 19]: 100
Plant response rating, Lambsquarters [4, 20]: 100
Plant response rating, Kochia (kochia (Kochia scoparia); [17]): 40
Plant response rating, Kochia (kochia (Kochia scoparia); [18]): 0
Plant response rating, Kochia (kochia (Kochia scoparia); [19]): 0
Plant response rating, Kochia (kochia (Kochia scoparia); [20]): 80
Plant response rating, Nutsedge [5, 17]: 0
Plant response rating, Nutsedge [5, 18]: 0
Plant response rating, Nutsedge [5, 19]: 0
Plant response rating, Nutsedge [5, 20]: 0
Plant response rating, Foxtail, Giant [6, 17]: 0
Plant response rating, Foxtail, Giant [6, 18]: 0
Plant response rating, Foxtail, Giant [6, 19]: 40
Plant response rating, Foxtail, Giant [6, 20]: 40
Plant response rating, Velvetleaf [7, 17]: 0
Plant response rating, Velvetleaf [7, 18]: 0
Plant response rating, Velvetleaf [7, 19]: 0
Plant response rating, Velvetleaf [7, 20]: 0
Plant response rating, Cocklebur [8, 17]: 0
Plant response rating, Cocklebur [8, 18]: 0
Plant response rating, Cocklebur [8, 19]: 0
Plant response rating, Cocklebur [8, 20]: 0
Plant response rating, Pigweed [9, 17]: 0
Plant response rating, Pigweed [9, 18]: 0
Plant response rating, Pigweed [9, 19]: 60
Plant response rating, Pigweed [9, 20]: 100
Plant response rating, Nightshade (Nightshade; Rate 31 g/ha, scale 0 to 100): 0
Plant response rating, Nightshade (Nightshade; Rate 62 g/ha, scale 0 to 100): 0
Plant response rating, Nightshade (Nightshade; [17]): 0
Plant response rating, Nightshade (Nightshade; Rate 250 g/ha, scale 0 to 100, 0 no effect, 100 complete control): 0
Plant response rating, Sunflower (Sunflower [10]): 0
Plant response rating, Ragweed, Common [11, 17]: 0
Plant response rating, Ragweed, Common [11, 18]: 0
Plant response rating, Ragweed, Common [11, 19]: 0
Plant response rating, Ragweed, Common [11, 20]: 0
Plant response rating, Corn (corn (Zea mays); [17]): 0
Plant response rating, Corn (corn (Zea mays); [18]): 0
Plant response rating, Corn (corn (Zea mays); [19]): 0
Plant response rating, Corn (corn (Zea mays); [20]): 10
Plant response rating, Surinam grass [12, 17]: 10
Plant response rating, Surinam grass [12, 18]: 0
Plant response rating, Surinam grass [12, 19]: 0
Plant response rating, Surinam grass [12, 20]: 40
Plant response rating, Goosegrass [13, 17]: 100
Plant response rating, Goosegrass [13, 18]: 20
Plant response rating, Goosegrass [13, 19]: 100
Plant response rating, Goosegrass [13, 20]: 100
Plant response rating, Morningglory [14, 17]: 0
Plant response rating, Morningglory [14, 18]: 0
Plant response rating, Morningglory [14, 19]: 0
Plant response rating, Morningglory [14, 20]: 0
Plant response rating, Johnsongrass [15, 17]: 70
Plant response rating, Johnsongrass [15, 18]: 10
Plant response rating, Johnsongrass [15, 19]: 10
Plant response rating, Johnsongrass [15, 20]: 100
Plant response rating, Soybean (soybean (Glycine max); [17]): 0
Plant response rating, Soybean (soybean (Glycine max); [18]): 0
Plant response rating, Soybean (soybean (Glycine max); [19]): 0
Plant response rating, Soybean (soybean (Glycine max); [20]): 0
Plant response rating, Sunflower (Sunflower [16]): 10
